Experimental data taken from paper PMC9381947 (Antiviral Research, 2022).

Key:
[1] = test system: NSP13 E375A; type: biochemical, SARS-CoV-2
[2] = test system: NSP13 E319A; type: biochemical, SARS-CoV-2

## O=C1O[C@@H]2[C@@H](OC(=O)c3cc(O)c(O)c(O)c3-c3c1cc(O)c(O)c3O)[C@H](O)O[C@@H]1COC(=O)c3cc(O)c(O)c(O)c3-c3c(O)c(O)c4oc(=O)c5c(c(O)c(O)c6oc(=O)c3c4c65)-c3c(cc(O)c(O)c3O)C(=O)O[C@@H]21 [Punicalagin, 2,3-hexahydroxydiphenoyl-gallagyl-D-glucose]
[1]
  reduction of the inhibitory potency compared to wild type: about 2 fold
[2]
  reduction of the inhibitory potency compared to wild type: about 2 fold
